The source of these data is PubChem BioAssay AID1259411 (Chemical Carcinogenesis Research Information System (CCRIS), 2018).

In the series the test system is rodent carcinogenicity bioassays, tumor incidence. The series can be described thus: CCRIS carcinogenicity studies. The essentials: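 Archive of carcinogenicity, mutagenicity, tumor promotion and tumor inhibition results drawn from journals, NCI reports and other sources, expert-reviewed; covers 1985-2011 and is no longer updated.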

Activity calls are given as the source filed them. How the calls were made is not given here.

In the case of `CN=[N+](C)[O-]`, the carcinogen call (Species: MOUSE, Strain/Sex: A/J/MALE,FEMALE, Route: INTRAPERITONEAL INJECTION, Dose: 5, 10 MG/KG BW ONCE A WEEK FOR 4 WKS, Tumor Site: Type of Lesion: COLON: TUMORS (ADENOMA), % OF TUMOR BEARING MICE WAS 10X HIGHER IN 10 MG/KG GROUP) was “active; positive; all animals given 20 mg/kg died”; the carcinogen call (Species: MOUSE, Strain/Sex: A/J/MALE,FEMALE, Route: INTRAPERITONEAL INJECTION, Dose: 10 MG/KG ONCE WEEKLY FOR 2, 4, 8 WKS, Tumor Site: Type of Lesion: COLON: ADENOMA) is “active; positive; response of approximately 25% with 2 doses to almost 100% at 4 or 8 d”; the carcinogen call (Species: MOUSE, Strain/Sex: A/J/MALE,FEMALE, Route: SUBCUTANEOUS INJECTION, Dose: 10 MG/KG BW ONCE A WK FOR 4 WK, Tumor Site: Type of Lesion: COLON: ADENOMA) is “active; positive; almost 80% incidence”; the carcinogen call (Species: MOUSE, Strain/Sex: AKR/J/MALE,FEMALE, Route: INTRAPERITONEAL INJECTION, Dose: 10 MG/KG BW WEEKLY FOR 2, 4, 8 WKS (STUDY DURATION: 6 MO), Tumor Site: Type of Lesion: COLON: ADENOMAS) was “only 5% of animals at 4 wk treatment developed tumors”; the carcinogen call (Species: MOUSE, Strain/Sex: AKR/J/MALE,FEMALE, Route: SUBCUTANEOUS, Dose: 10 MG/KG BW WEEKLY FOR 4 WK (STUDY DURATION: 6 MO), Tumor Site: Type of Lesion: COLON: ADENOMA) is listed as “only about 5% developed tumors”; the carcinogen call (Species: MOUSE, Strain/Sex: ICR/MALE, Route: SUBCUTANEOUS, Dose: 0, 0.3 MG/MOUSE IN SALINE 1/WK FOR 20 WK (STUDY DURATION: 36 WK), Tumor Site: Type of Lesion: COLON: ADENOMA OR ADENOCARCINOMA, ADENOMA OR ADENOCARCINOMA OR CARCINOMA, RECTUM: CARCINOMA, BLOOD VESSELS: ANGIOMA OR A, Tumor Site: Type of Lesion: COLON: ADENOMA OR ADENOCARCINOMA, ADENOMA OR ADENOCARCINOMA OR CARCINOMA, RECTUM: CARCINOMA, BLOOD VESSELS: ANGIOMA OR A) was “active; positive”. The carcinogen call was “active; positive- tumor incidence 30-100%” (Species: MOUSE, Strain/Sex: SWR/J/MALE,FEMALE, Route: INTRAPERITONEAL INJECTION, Dose: 10 MG/KG BW FOR 2, 4, OR 8 WKS, ONCE A WK (STUDY DURATION: 6 MO), Tumor Site: Type of Lesion: COLON: ADENOMA); “active; positive; response about 30%” (Species: MOUSE, Strain/Sex: SWR/J/MALE,FEMALE, Route: SUBCUTANEOUS INJECTION, Dose: 10 MG/KG BW ONCE A WK FOR 4 WK, Tumor Site: Type of Lesion: COLON: ADENOMA); “active; positive” (Species: RAT, Strain/Sex: F344/FEMALE, Route: INTRAVESICULAR, Dose: 0, 2 MG IN 0.2 ML ETHANOL: DEIONIZED WATER (1:3) 2/WK FOR 22 WK (TOTAL DOSE 1.2 MMOL) (STUDY DURATION: LIFESPAN), Tumor Site: Type of Lesion: COLON: TUMOR, ZYMBAL GLAND: TUMOR); “active; positive” (Species: RAT, Strain/Sex: F344/FEMALE, Route: SUBCUTANEOUS, Dose: 8 MG/KG 1/WK FOR 10 WK, Tumor Site: Type of Lesion: COLON: ADENOMA, CARCINOMA, ADENOCARCINOMA); “active; positive” (Species: RAT, Strain/Sex: F344/MALE, Route: ORAL, Dose: 0, 1.0, 4.0 MG/WK IN DRINKING WATER FOR 30 WK (STUDY DURATION: LIFETIME), Dose: 0, 1.0, 4.0 MG/WK IN DRINKING WATER FOR 30 WK (STUDY DURATION: LIFETIME), Tumor Site: Type of Lesion: LIVER: CARCINOMA, SARCOMA, KIDNEY: INTERSTITIAL CELL SARCOMA OR NEUROSARCOMA OR RENAL CARCINOMA, COLON: ADENOMA OR CARCI, Tumor Site: Type of Lesion: LIVER: CARCINOMA, SARCOMA, KIDNEY: INTERSTITIAL CELL SARCOMA OR NEUROSARCOMA OR RENAL CARCINOMA, COLON: ADENOMA OR CARCI); “active; positive” (Species: RAT, Strain/Sex: F344/MALE, Route: ORAL, Dose: 0, 10, 40 MG/ML IN A NEUTRAL DEIONIZED DRINKING WATER SOLUTION 5 D/WK FOR 30 WK (TOTAL DOSE 30; 120 MG) (STUDY DURATION:, Dose: 0, 10, 40 MG/ML IN A NEUTRAL DEIONIZED DRINKING WATER SOLUTION 5 D/WK FOR 30 WK (TOTAL DOSE 30; 120 MG) (STUDY DURATION:, Tumor Site: Type of Lesion: LIVER: CARCINOMA, HEMANGIOSARCOMA, KIDNEY: TUMOR, COLON: ADENOCARCINOMA, ADENOMA, Tumor Site: Type of Lesion: LIVER: CARCINOMA, HEMANGIOSARCOMA, KIDNEY: TUMOR, COLON: ADENOCARCINOMA, ADENOMA). Further, the carcinogen call (Species: RAT, Strain/Sex: SPRAGUE-DAWLEY/MALE, Route: SUBCUTANEOUS, Dose: 8 MG/KG 1/WK FOR 24 WK, Tumor Site: Type of Lesion: INTESTINES (LARGE AND SMALL): ADENOCARCINOMA) was “active; positive”; the carcinogen call (Species: RAT, Strain/Sex: STRAIN-BD, Route: SUBCUTANEOUS, Dose: >6 MG/KG ONCE, Tumor Site: Type of Lesion: COLON: ADENOCARCINOMA, KIDNEY: NEPHROBLASTOMA) is “active; positive”; the carcinogen call (Species: RAT, Strain/Sex: STRAIN-BD, Route: SUBCUTANEOUS, Dose: >6 MG/KG ONCE, Tumor Site: Type of Lesion: COLON: ADENOCARCINOMA, NERVOUS SYSTEM: NEUROBLASTOMA, KIDNEY: NEPHROBLASTOMA, Tumor Site: Type of Lesion: COLON: ADENOCARCINOMA, NERVOUS SYSTEM: NEUROBLASTOMA, KIDNEY: NEPHROBLASTOMA) was “active; positive”; the carcinogen call (Species: RAT, Strain/Sex: WISTAR/MALE, Route: SUBCUTANEOUS, Dose: 0, 7.4 MG/KG IN 0.9% SALINE 1/WK FOR 10 WK ADMINISTERED TO RATS MAINTAINED ON NORMAL-PROTEIN (25% CASEIN), LOW-PROTEIN (, Tumor Site: Type of Lesion: COLON: TUMOR) was “active; positive”.

In the case of `O=C([O-])C(=O)[O-].O=C([O-])C(=O)[O-].[K+].[K+].[O]=[Ti+2]`, the carcinogen call by setting is: (Species: MOUSE, Strain/Sex: SWISS/FEMALE, Route: ORAL, Dose: 0, 5 PPM IN DRINKING WATER FOR DURATION OF STUDY (STUDY DURATION: LIFE SPAN)) “inactive; negative”; (Species: MOUSE, Strain/Sex: SWISS/MALE, Route: ORAL, Dose: 0, 5 PPM IN DRINKING WATER FOR DURATION OF STUDY (STUDY DURATION: LIFE SPAN)) “inactive; negative”.

Take `[N-]=[N+]=[N-]`: the carcinogen call (Species: RAT, Strain/Sex: F344/FEMALE, Route: GAVAGE, Dose: 0, 5, 10 MG/KG IN DISTILLED WATER 5 D/WK FOR 103 WK (STUDY DURATION: 2 YR), Dose: 0, 5, 10 MG/KG IN DISTILLED WATER 5 D/WK FOR 103 WK (STUDY DURATION: 2 YR)) is “inactive; negative” and the carcinogen call (Species: RAT, Strain/Sex: F344/MALE, Route: GAVAGE, Dose: 0, 5, 10 MG/KG IN DISTILLED WATER 5 D/WK FOR 103 WK (STUDY DURATION: 2 YR), Dose: 0, 5, 10 MG/KG IN DISTILLED WATER 5 D/WK FOR 103 WK (STUDY DURATION: 2 YR)) is “inactive; negative”.

`O=c1c(O[C@@H]2O[C@H]([C@H](O)CO)[C@H](O)[C@H]2O)c(-c2ccc(O)c(O)c2)oc2cc(O)cc(O)c12`: the carcinogen call (Species: RAT, Strain/Sex: F344 DUCRJ/FEMALE (50/GROUP), Route: ORAL, DIET, Dose: 119.2, 352.8 MG/KG DAILY FOR 104 WK (STUDY DURATION: 104 WK), TEST MATERIAL WAS ENZYMATICALLY MODIFIED, Dose: 119.2, 352.8 MG/KG DAILY FOR 104 WK (STUDY DURATION: 104 WK), TEST MATERIAL WAS ENZYMATICALLY MODIFIED, Tumor Site: Type of Lesion: NONE) is “inactive; negative” and the carcinogen call (Species: RAT, Strain/Sex: F344 DUCRJ/MALE (50/GROUP), Route: ORAL, DIET, Dose: 142.5, 431.1 MG/KG DAILY FOR 104 WK (STUDY DURATION: 104 WK), TEST MATERIAL WAS ENZYMATICALLY MODIFIED, Dose: 142.5, 431.1 MG/KG DAILY FOR 104 WK (STUDY DURATION: 104 WK), TEST MATERIAL WAS ENZYMATICALLY MODIFIED, Tumor Site: Type of Lesion: NONE) was “inactive; negative”.

With `C=CCOC(Cn1ccnc1)c1ccc(Cl)cc1Cl` (stereo unspecified), the carcinogen call is, setting by setting: (Species: Mouse, Strain/Sex: Swiss/Female (50/Group), Route: Oral, Dose: 0, 50, 200, 600 ppm 93% imazalil in diet in 50:50 Aerosil:corn starch for 2 yr, study duration 2 yr, Dose: 0, 50, 200, 600 ppm 93% imazalil in diet in 50:50 Aerosil:corn starch for 2 yr, study duration 2 yr, Tumor Site: Type of Lesion: Liver: hepatocytic neoplasms) “active; positive”; (Species: Mouse, Strain/Sex: Swiss/Male (50/Group), Route: Oral, Dose: 0, 50, 200, 600 ppm 93% imazalil in diet in 50:50 Aerosil:corn starch for 2 yr, study duration 2 yr, Dose: 0, 50, 200, 600 ppm 93% imazalil in diet in 50:50 Aerosil:corn starch for 2 yr, study duration 2 yr, Tumor Site: Type of Lesion: Liver: hepatocytic neoplasms) “active; positive”; (Species: Rat, Strain/Sex: Cpb:WU/Female (20/Group), Route: Oral, Dose: 0, 25, 100, 400 ppm 98.1% imazalil in diet for 18 mo, study duration 18 mo, Dose: 0, 25, 100, 400 ppm 98.1% imazalil in diet for 18 mo, study duration 18 mo) “inactive; negative”; (Species: Rat, Strain/Sex: Cpb:WU/Male (20/Group), Route: Oral, Dose: 0, 25, 100, 400 ppm 98.1% imazalil in diet for 18 mo, study duration 18 mo, Dose: 0, 25, 100, 400 ppm 98.1% imazalil in diet for 18 mo, study duration 18 mo) “inactive; negative”.
